In PubChem BioAssay (NCI) one finds GI50 and TGI data, which are given here for 6 compounds.

What is called GI50 is the concentration that inhibits growth by half. The term TGI denotes the concentration at which net growth stops. Low readings indicate more potent growth arrest, high ones less potent growth arrest.

What all share (assay): DTP human tumour cell line panel, 48 h
For experiment [1], the system named is A498 renal.
The test system of experiment [2] is HCC-2998 colon.
For experiment [3], the system named is HOP-62 NSCLC.
Experiment [4] relates to KM12 colon.
For experiment [5], the system named is MDA-MB-231 breast.
In experiment [6] the test system is RXF 393 renal.
The subject of experiment [7] is SK-MEL-2 melanoma.
Experiment [8] has as its system SN12C renal.
For experiment [9], the system named is T-47D breast.
Experiment [10] relates to TK-10 renal.

Values joined by “and” are separate entries in the source; they are usually repeats but may differ in a detail not shown here. Equal values may be shown once.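 Method: 48-hour compound exposure of cells in 96-well plates, five concentrations, linear interpolation of endpoints. GI50 = concentration required for 50% inhibition of growth. TGI denotes the concentration required for complete inhibition of growth.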

On to `Cc1cc(C)c(O)c(CNCCCNCc2cc(C)cc(C)c2O)c1`, for which the GI50 in [1] was 1.71 µM; in experiment [2], 1.45 µM; in experiment [3] it was 6.68 µM; in experiment [4] it was 2.58 µM; in experiment [5], 1.93 µM; in experiment [6] it was 1930 nM. The GI50 in experiment [7] was 2150 nM; in experiment [8] it was 5.23 µM; in experiment [9] it was 1.73 µM; in experiment [10], 6.16 µM. Besides, the TGI in experiment [1] was 9.24 µM; in experiment [2] it was 2.82 µM; in experiment [3], 21.8 µM; in experiment [4], 7.24 µM; in experiment [5], 4.45 µM; in [6] it was 4.24 µM. The TGI was found to be 4.5 µM in [7], 18.8 µM in experiment [8], 4.29 µM in [9] and 20.6 µM in experiment [10].

With `C[C@H](C(O)CC(=O)C(C)(C)O)[C@H]1CC[C@@]2(C)[C@@H]3CC[C@H]4C(C)(C)[C@@H](OC5OC(COC6OC(CO)C(O)C(O)C6O)C(O)C(O)C5O)CC[C@]4(C)C3=CC[C@]12C` (stereo not given in full), the TGI in experiment [1], in experiment [2], in experiment [3], in experiment [4], in [5] and in experiment [6] was > 100 µM in each case. Besides, the TGI in experiment [7], in [8], in experiment [9] and in experiment [10] was > 100 µM each time.

`CCC1(N)C(=O)OCc2c1cc1n(c2=O)Cc2cc3ccccc3nc2-1` (stereo not given): the GI50 in experiment [1] was 10.6 µM; in [2], 14.1 µM; in experiment [3] it was 4.77 µM; in experiment [4] it was 26.1 µM; in [5], 49.3 µM; in experiment [6], 15400 nM. Further, the GI50 in experiment [7] is 48800 nM; in experiment [8] it was 6.27 µM; in [9] it was 5.78 µM; in [10] it was 51 µM. For the same compound, the concentration for total growth inhibition (TGI) in experiment [1] was 34.4 µM and 46.2 µM; in experiment [2], 41.1 µM and > 100 µM; in experiment [3], > 100 µM; in experiment [4], > 100 µM; in experiment [5], > 100 µM; in [6] it was 63.1 µM and > 100 µM. Besides, the TGI in experiment [7] was > 100 µM; in experiment [8] it was > 100 µM; in experiment [9], > 100 µM and 18.4 µM; in experiment [10], > 100 µM.

As to `Cc1ccc(-n2c3c(c4c(CN)c(O)ccc42)CCc2ccccc2C3=O)cc1`, the GI50 in experiment [1] was 4.17 µM; in experiment [2], 4.05 µM; in experiment [3] it was 17.2 µM; in experiment [4], 13.2 µM; in [5], 14.8 µM; in experiment [6], 17000 nM. The GI50 is 12000 nM in [7], 14.2 µM in [8], 22.8 µM in experiment [9] and 13.3 µM in experiment [10]. Also, the TGI in experiment [1] is 16.8 µM; in experiment [2] it was 15.6 µM; in experiment [3] it was 31.7 µM; in [4], 29.1 µM; in [5], 29.2 µM; in experiment [6], 36.7 µM. In addition, the TGI in experiment [7] turned out to be 26.9 µM; in experiment [8] it was 28.2 µM; in experiment [9], 50.1 µM; in experiment [10], 26.3 µM.

Regarding `O=S(=O)(NCCNc1cc(-c2cn(-c3ccccc3)nc2-c2cccc(O)c2)ccn1)c1ccc(Br)cc1`, the GI50 is 1.45 µM in experiment [1]; 2.14 µM in experiment [2]; 2.35 µM in experiment [3]; 2.59 µM in experiment [4]; 1.9 µM in [5]; 2380 nM in experiment [6]. Besides, the GI50 in experiment [7] is 2300 nM; in experiment [8] it was 2.14 µM; in [9] it was 2.22 µM; in experiment [10], 2.78 µM. The TGI in experiment [1] was found to be 5.47 µM; in experiment [2], 4.1 µM; in [3], 5.99 µM; in experiment [4], 7.95 µM; in experiment [5], 4.59 µM; in experiment [6] it was 6.96 µM. Further, the concentration for total growth inhibition (TGI) was 4.79 µM in [7], 4.78 µM in experiment [8], 7.71 µM in experiment [9] and 9.65 µM in experiment [10].

Regarding `C[C@@H]1OC(=O)NN=C1c1ccc(-c2ccc(F)cc2)c(C(F)(F)F)c1`, the GI50 in [1] was 15.5 µM; in experiment [2] it was 10.6 µM; in experiment [3], 10.7 µM; in experiment [4], 5.95 µM; in experiment [5], 10.1 µM; in experiment [6] it was 1580 nM. Further, the 50% growth inhibitory concentration (GI50) was 141 nM in experiment [7], 5.63 µM in experiment [8], 5.26 µM in experiment [9] and 1.65 µM in [10]. Besides, the TGI in [1] is 29.5 µM; in experiment [2] it was 23.1 µM; in experiment [3], 26.2 µM; in experiment [4], 19.5 µM; in experiment [5], 24.9 µM; in [6] it was 7.62 µM. Moreover, the TGI in [7] was determined as 13.1 µM; in [8] it was 21.8 µM; in experiment [9], 25.8 µM; in [10] it was 19.6 µM.
